Molecules are shown by their SMILES.

The target in the test is T1, CCR2 (Homo sapiens, UniProt P41597).
T1 construct: THP-1 human monocytic leukemic cell line, which expresses endogenous CCR2; endogenous in cells; host or cells: human peripheral blood mononuclear cells, human monocytes or THP-1 cells
T1 sequence (P41597 1-360 isoform P41597-2): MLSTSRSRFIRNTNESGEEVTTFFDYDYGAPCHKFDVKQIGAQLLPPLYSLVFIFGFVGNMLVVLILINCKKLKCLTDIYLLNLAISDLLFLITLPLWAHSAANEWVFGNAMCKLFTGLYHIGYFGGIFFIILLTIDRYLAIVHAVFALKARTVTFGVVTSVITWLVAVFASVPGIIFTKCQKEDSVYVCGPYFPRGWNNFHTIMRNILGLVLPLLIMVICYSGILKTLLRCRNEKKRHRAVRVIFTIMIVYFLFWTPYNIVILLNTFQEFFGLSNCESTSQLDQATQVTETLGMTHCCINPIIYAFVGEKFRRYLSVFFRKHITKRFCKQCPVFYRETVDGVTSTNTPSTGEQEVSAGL
In words: CCR2 binding: antagonism of 125I-MCP-1 binding (human PBMC / THP-1 whole cell). The conditions noted are these: n = 1 unless otherwise noted. The procedure:
Antagonism of MCP-1 Binding to Human PBMC
Millipore filter plates (#MABVN1250) are treated with 100 μl of binding buffer (0.5% bovine serum albumin, 20 mM HEPES buffer and 5 mM magnesium chloride in RPMI 1640 media) for thirty minutes at room temperature. To measure binding, 50 μl of binding buffer, with or without a known concentration compound, is combined with 50 μl of ^125-I labeled human MCP-1 (to give a final concentration of 150 pM radioligand) and 50 μl of binding buffer containing 5×10^5 cells. Cells used for such binding assays can include human peripheral blood mononuclear cells isolated by Ficoll-Hypaque gradient centrifugation, human monocytes (Weiner et al., J. Immunol. Methods. 1980, 36, 89), or the THP-1 cell line which expresses the endogenous receptor. The mixture of compound, cells and radioligand are incubated at room temperature for thirty minutes. Plates are placed onto a vacuum manifold, vacuum applied, and the plates washed three times with binding buffer containing 0.5M NaCl. The plastic skirt is removed from the plate, the plate allowed to air dry, the wells punched out and counted. The percent inhibition of binding is calculated using the total counts obtained in the absence of any competing compound and the background binding determined by addition of 100 nM MCP-1 in place of the test compound.
THP-1 Monocytic Cell Binding: Whole Cell-based Assay
The human CCR2 binding assay was also established with the THP-1 human monocytic leukemic cell line, which expresses endogenous CCR2, using ^125I-human MCP-1 as the tracer ligand. Radioligand competition binding assays were used for assessment of binding affinity of test compounds to the CCR2 receptor. For radioligand competition studies, 100 μl containing 2.5×10^5 THP-1 cells/well (in assay buffer containing 50 mM HEPES, pH7.4, 5 mM MgCl2, 1 mM CaCl2 and 0.5% BSA) were added to 96-well assay plates containing the test compounds in 3-fold serial dilution, with final concentrations ranging from 5 μM to 100 pM. Subsequently, 50 μl ^125I-MCP-1 radioligand at a final concentration of 0.2 nM in assay buffer were added to the reaction. After a 90 minute incubation period at room temperature, the binding reaction was terminated by harvesting on GF/B filter plates (PerkinElmer Cat. No. 6005177) followed by washing with ice-cold wash buffer (50 mM HEPES, pH 7.4, 0.1% BSA, 0.5 M NaCl) to remove unbound ligand. After washing, the plate was dried for 45 minutes at 60° C. followed by addition of 40 μl MicroScint 20 scintillation fluid, sealed and analyzed by the Packard TopCount reader. Non-specific binding was determined in the presence of 10 μM (a molar excess of 5000 fold) of an in-house CCR2 small molecule antagonist (CCR2 IC50=2 nM). Specific binding of ^125I-MCP-1 was calculated as the difference between total and non-specific binding. The competition data was plotted as a percentage inhibition of radioligand specific bound in the absence of test compound (percent of total signal). After correcting for non-specific binding, IC50 values were determined. The IC50 is defined as the concentration of test compound required to reduce ^125I-MCP-1 specific binding by 50% and was calculated using the four parameter logistic equation to fit the normalized data.
Take `CC1(c2ccc(Cl)c(Cl)c2)CCCC=C1C(=O)O` (racemic) [Example 1-01, 6-(3,4-dichlorophenyl)-6-methylcyclohex-1-enecarboxylic acid]: the Ki turned out to be 440 nM.
On to `CC1(c2ccc(Cl)cc2)CCCC=C1C(=O)O` (racemic) [Example 1-02, 6-(4-chlorophenyl)-6-methylcyclohex-1-enecarboxylic acid], for which affinity was put at a Ki of 3400 nM.
On to `C[C@@H]1CC=C(C(=O)O)[C@@](C)(c2cccc(-c3ccccc3)c2)C1` (racemic) [Example 1-03, (4RS,6RS)-6-(3-phenylphenyl)-4,6-dimethylcyclohex-1-enecarboxylic acid], for which the affinity, expressed as Ki, was 250 nM.
Compound `Cc1ccc([C@@]2(C)C[C@H](C)CC=C2C(=O)O)cc1Cl` (racemic) [Example 1-04, (4RS,6RS)-6-(3-chloro-4-methylphenyl)-4,6-dimethylcyclohex-1-enecarboxylic acid] returned a Ki of 69 nM.
With `C[C@@H]1CC=C(C(=O)O)[C@@](C)(c2ccc(F)c(F)c2)C1` (racemic) [Example 1-05, (4RS,6RS)-6-(3,4-difluorophenyl)-4,6-dimethylcyclohex-1-enecarboxylic acid] the figure was 3500 nM; with `C[C@]1(c2ccc(Cl)c(Cl)c2)C[C@H](c2ccccc2)CC=C1C(=O)O` (racemic) [Example 1-06, (4RS,6RS)-6-(3,4-dichlorophenyl)-6-methyl-4-phenylcyclohex-1-enecarboxylic acid], 3900 nM; with `Cc1ccc(C2(C)CCCC=C2C(=O)O)cc1C` (racemic) [Example 1-08, 6-(3,4-dimethylphenyl)-6-methylcyclohex-1-enecarboxylic acid], 8200 nM.
The compound `CC1(c2cccc(Cl)c2)CCCC=C1C(=O)O` (racemic) [Example 1-09, 6-(3-chlorophenyl)-6-methylcyclohex-1-enecarboxylic acid] registered a Ki of 3000 nM. Against the preceding compound, the Ki is about 2.7-fold lower.
`CC1(c2cccc(C(F)(F)F)c2)CCCC=C1C(=O)O` (racemic) [Example 1-10, 6-methyl-6-(3-(trifluoromethyl)-phenyl)cyclohex-1-enecarboxylic acid] showed a Ki of 1600 nM.
Consider `C[C@@H]1CC=C(C(=O)O)[C@@](C)(c2ccc(Cl)c(Cl)c2)C1` (racemic) [Example 1-11, (4RS,6RS)-6-(3,4-dichlorophenyl)-4,6-dimethylcyclohex-1-enecarboxylic acid], for which the affinity, expressed as Ki, was 80 nM.
`C[C@@H]1CC=C(C(=O)O)[C@@](C)(c2cccc(C(F)(F)F)c2)C1` (racemic) [Example 1-12, (4RS,6RS)-4,6-dimethyl-6-(3-(trifluoromethyl)phenyl)cyclohex-1-enecarboxylic acid] yielded a Ki of 280 nM.
With `C[C@@H]1CC=C(C(=O)O)[C@@](C)(c2ccc(Cl)c(C(F)(F)F)c2)C1` (racemic) [Example 1-13, (4RS,6RS)-6-(4-chloro-3-(trifluoromethyl)-phenyl)-4,6-dimethylcyclohex-1-enecarboxylic acid] the figure was 11 nM; with `C[C@@H]1CC=C(C(=O)O)[C@@](C)(c2cc(C(F)(F)F)cc(C(F)(F)F)c2)C1` (racemic) [Example 1-14, (4RS,6RS)-6-(3,5-bis(trifluoromethyl)-phenyl)-4,6-dimethylcyclohex-1-enecarboxylic acid], 740 nM.
In the case of `Cc1ccc([C@@]2(C)C[C@H](C)CC=C2C(=O)O)cc1C` (racemic) [Example 1-15, (4RS,6RS)-6-(3,4-dimethylphenyl)-4,6-dimethylcyclohex-1-enecarboxylic acid], the Ki stood at 330 nM.
With `C[C@@H]1CC=C(C(=O)O)[C@@](C)(c2cccc3ccccc23)C1` (racemic) [Example 1-16, (4RS,6RS)-4,6-dimethyl-6-(napthalen-1-yl)cyclohex-1-enecarboxylic acid], the Ki was determined as 140 nM.
For `Cc1ccc([C@@]2(C)C[C@H](C)CC=C2C(=O)O)cc1` (racemic) [Example 1-17, (4RS,6RS)-4,6-dimethyl-6-p-tolylcyclohex-1-enecarboxylic acid], affinity was put at a Ki of 2600 nM.
In the case of `Cc1cccc([C@@]2(C)C[C@H](C)CC=C2C(=O)O)c1` (racemic) [Example 1-18, (4RS,6RS)-4,6-dimethyl-6-m-tolylcyclohex-1-enecarboxylic acid], the affinity, expressed as Ki, was 930 nM.
With `Cc1cccc([C@@]2(C)C[C@H](C)CC=C2C(=O)O)c1C` (racemic) [Example 1-19, (4RS,6RS)-6-(2,3-dimethylphenyl)-4,6-dimethylcyclohex-1-enecarboxylic acid] the figure was 3700 nM; with `C[C@@H]1CC=C(C(=O)O)[C@@](C)(c2ccc3ccccc3c2)C1` (racemic) [Example 1-20, (4RS,6RS)-4,6-dimethyl-6-(naphthalen-2-yl)cyclohex-1-enecarboxylic acid], 320 nM; with `C[C@@H]1CC=C(C(=O)O)[C@@](C)(c2ccc(Cl)cc2)C1` (racemic) [Example 1-21, (4RS,6RS)-6-(4-chlorophenyl)-4,6-dimethylcyclohex-1-enecarboxylic acid], 900 nM.
The compound `C[C@@H]1CC=C(C(=O)O)[C@@](C)(c2ccc(F)cc2)C1` (racemic) [Example 1-22, (4RS,6RS)-6-(4-fluorophenyl)-4,6-dimethylcyclohex-1-enecarboxylic acid] had a Ki of 480 nM.
For the compound `C[C@@H]1CC=C(C(=O)O)[C@@](C)(c2cccc(F)c2)C1` (racemic) [Example 1-23, (4RS,6RS)-6-(3-fluorophenyl)-4,6-dimethylcyclohex-1-enecarboxylic acid], affinity was put at a Ki of 3700 nM.
The compound `C[C@@H]1CC=C(C(=O)O)[C@@](C)(c2ccccc2)C1` (racemic) [Example 1-24, (4RS,6RS)-4,6-dimethyl-6-phenylcyclohex-1-enecarboxylic acid] came in with a Ki of 1000 nM.
Compound `Cc1cc([C@@]2(C)C[C@H](C)CC=C2C(=O)O)ccc1F` (racemic) [Example 1-25, (4RS,6RS)-6-(4-fluoro-3-methylphenyl)-4,6-dimethylcyclohex-1-enecarboxylic acid] registered an inhibition constant (Ki) of 1100 nM.
For `Cc1ccc(C)c([C@@]2(C)C[C@H](C)CC=C2C(=O)O)c1` (racemic) [Example 1-26, (4RS,6RS)-6-(2,5-dimethylphenyl)-4,6-dimethylcyclohex-1-enecarboxylic acid], the affinity, expressed as Ki, was 550 nM.
In turn, `Cc1cc([C@@]2(C)C[C@H](C)CC=C2C(=O)O)cc(C)c1Cl` (racemic) [Example 1-27, (4RS,6RS)-6-(4-chloro-3,5-dimethylphenyl)-4,6-dimethylcyclohex-1-enecarboxylic acid] yielded a Ki of 130 nM.
Take `Cc1ccc([C@@]2(C)C[C@H](C)CC=C2C(=O)O)c2ccccc12` (racemic) [Example 1-28, (4RS,6RS)-4,6-dimethyl-6-(4-methyl-naphthalen-1-yl)cyclohex-1-enecarboxylic acid]: the Ki is 250 nM.
`Cc1cc(C)cc([C@@]2(C)C[C@H](C)CC=C2C(=O)O)c1` (racemic) [Example 1-29, (4RS,6RS)-6-(3,5-dimethylphenyl)-4,6-dimethylcyclohex-1-enecarboxylic acid] came in with a Ki of 300 nM.
`C[C@@H]1CC=C(C(=O)O)[C@@](C)(c2cc(Cl)cc(Cl)c2)C1` (racemic) [Example 1-30, (4RS,6RS)-6-(3,5-dichlorophenyl)-4,6-dimethylcyclohex-1-enecarboxylic acid] came in with a Ki of 110 nM.
